pIC50: −log10 of the molar value.

For test [1], the target named is T1, Brassica napus (canola) EPSP synthase DGT-3 (GENBANK P17688) variant DGT-3 v6 (G→A) (Brassica napus, UniProt P17688, G173A).
T1 construct: made in house; host or cells: E. coli Rosetta2 (DE3)
T1 sequence (P17688 73-516 G173A): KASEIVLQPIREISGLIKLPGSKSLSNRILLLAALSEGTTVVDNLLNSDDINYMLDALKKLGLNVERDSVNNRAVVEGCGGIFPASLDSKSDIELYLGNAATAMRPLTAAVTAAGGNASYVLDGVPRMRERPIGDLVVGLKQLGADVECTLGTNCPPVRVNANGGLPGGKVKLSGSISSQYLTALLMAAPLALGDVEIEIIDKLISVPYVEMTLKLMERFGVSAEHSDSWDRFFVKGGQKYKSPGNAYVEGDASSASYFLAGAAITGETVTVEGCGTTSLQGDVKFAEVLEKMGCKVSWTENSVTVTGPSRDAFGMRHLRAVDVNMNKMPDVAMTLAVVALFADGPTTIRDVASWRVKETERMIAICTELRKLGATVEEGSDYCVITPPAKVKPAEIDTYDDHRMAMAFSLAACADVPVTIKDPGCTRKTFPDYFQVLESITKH
Briefly: In vitro kinetic assay (inorganic phosphate production, malachite green). The test is classed as biochemical. As to conditions: for pIC50: IC50 (glyphosate). The source says:
(§1) The following Class I enzymes: DGT-1 from Glycine max, DGT-3 from Brassica napus (GENBANK ACC NO: P17688), and DGT-7 from Triticum aestivum (GENBANK ACC NO: EU977181) were used as a comparison. The Class I EPSP synthase enzymes and mutant variants thereof were synthesized and evaluated. A mutation introduced into the plant EPSP synthase enzymes consisted of the Glycine to Alanine mutation made within the EPSP synthase enzyme at a similar location as that of the G96A mutation from the E. coli version of the enzyme. In addition, Threonine to Isoleucine and Proline to Serine mutations were introduced within these Class I EPSP synthase enzymes at analogous positions as that of amino acid 97 (T to I) and amino acid 101 (P to S) in the EPSP synthase of E. coli as described in Funke et al., (2009).
(§2) The location of the amino acid residue which was mutated from glycine to alanine is indicated by the first asterisk. The location of the amino acid residue which was mutated from threonine to isoleucine is indicated by the second asterisk. The location of the third amino acid residue which was mutated from proline to serine is indicated by the third asterisk. These mutations were introduced into different versions of DGT-1, DGT-3, and DGT-7. The different versions of the genes which contain the mutations are described in more detail below.
(§3) Additional constructs containing the dgt-1, dgt-3 and dgt-7 were synthesized. These constructs were used for in vitro testing of the dgt-1 v5, dgt-1 v6, dgt-1 v7, dgt-1 v8, dgt-3 v6, dgt-3 v7, dgt-3 v8, dgt-7 v5, dgt-7 v6, dgt-7 v7, and dgt-7 v8 gene sequences were outsourced to GeneArt for synthesis and cloning. The synthesized genes were cloned into the pET28 expression vector. The resulting constructions were labeled as pDAB102028 containing dgt-1 v5, pDAB102029 containing dgt-1 v6, pDAB102032 containing dgt-1 v7, pDAB102034 containing dgt-1 v8, pDAB100429 containing dgt-3 v6, pDAB100442 containing dgt-3 v7, pDAB100430 containing dgt-3 v8, pDAB102036 containing dgt-7 v5, pDAB102038 containing dgt-7 v6, pDAB102040 containing dgt-7 v7, and pDAB102042 containing dgt-7 v8.
(§4) Recombinant DGT proteins were overexpressed in Rosetta2™ (DE3) cells (Novagen, Madison, Wis.) from the constructs described above. A single colony was used to inoculate 50 mL starter cultures of LB containing chloramphenicol (25 μg/mL) and kanamycin (50 μg/mL) which were cultivated overnight at 37° C. The overnight cultures were used to inoculate 1 L of LB containing chloramphenicol (25 μg/mL) and kanamycin (50 μg/mL). The cultures were grown at 37° C. to an O.D.600=0.6 then placed in an ice water bath for 10 minutes. Expression of the target proteins was achieved by addition of IPTG to a final concentration of 500 μM. Induction was allowed to proceed overnight at 20° C. followed by harvesting via centrifugation at 8,000 rpm for 20 minutes. The cell pellets were stored at −80° C. until required for purification. All purification steps were carried out at 4° C.
(§5) Cell pellets from 1 L cultures were resuspended in 20-30 mL Buffer A (50 mM HEPES pH 7.5, 150 mM KCl, 2 mM DTT, 1 mM EDTA, 20 mM imidazole, and 5% glycerol). COMPLETE™ protease inhibitor cocktail (1 tablet/50 mL, Roche, Indianapolis, Ind.) and lysozyme (1 mg/mL, Sigma-Aldrich, St. Louis, Mo.) were then added and the suspension was stirred for 20 minutes. Cell lysis was performed using a Branson Sonifier 250 (3×60 second bursts) followed by removal of the cell debris by centrifugation at 16,000 rpm for 45 minutes. DGT enzymes were purified to homogeneity in one step via immobilized metal affinity chromatography (IMAC) using a 5 mL HisTrap FF crude column. The column was equilibrated in Buffer A and the sample was loaded in the same buffer. The column was then washed with 10 column volumes of Buffer A followed by elution in a 0-100% Buffer B (50 mM HEPES pH 7.5, 200 mM KCl, 2 mM DTT, 1 mM EDTA, 500 mM imidazole, and 5% glycerol) linear gradient over 25 column volumes. […]

Test [2] deals with T2, Triticum aestivum (wheat) EPSP synthase DGT-7 variant DGT-7 v8 (T→I, P→S; TIPS) (Triticum aestivum, UniProt B5M6A1, P172S/T168I).
T2 construct: TIPS double mutant
T2 sequence (B5M6A1 with tags, fused parts or gaps T168I/P172S): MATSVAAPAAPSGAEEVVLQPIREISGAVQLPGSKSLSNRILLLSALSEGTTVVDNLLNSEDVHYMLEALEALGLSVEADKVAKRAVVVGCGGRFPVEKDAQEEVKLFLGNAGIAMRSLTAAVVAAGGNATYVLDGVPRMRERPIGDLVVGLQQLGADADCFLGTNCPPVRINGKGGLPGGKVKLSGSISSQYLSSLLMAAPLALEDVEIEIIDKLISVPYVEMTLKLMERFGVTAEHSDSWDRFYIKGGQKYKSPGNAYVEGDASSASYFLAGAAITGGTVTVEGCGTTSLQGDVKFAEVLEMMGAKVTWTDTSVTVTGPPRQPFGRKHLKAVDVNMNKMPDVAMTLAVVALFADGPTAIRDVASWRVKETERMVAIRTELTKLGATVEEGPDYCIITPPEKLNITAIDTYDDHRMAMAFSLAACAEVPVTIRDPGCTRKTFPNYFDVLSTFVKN
Described as above. The test is classed as biochemical.
From the text: as §1, §2, §3, §4, §5

One may read the kcat/Km as the turnover number divided by the Michaelis constant. The term Km denotes the concentration of substrate that gives half-maximal velocity. With `C=C(OP(=O)(O)O)C(=O)O` [PEP, phosphoenolpyruvate], the “increase of Km for PEP” value in test [1] (G to A mutation vs un-mutated) is reported as approximately 8 fold. For the same molecule, the kcat/Km in test [2] (PEP, pH 7.5, 1 mM S3P) was found to be 13600 M⁻¹ s⁻¹. Further, the Km in test [2] (read-out: Km for PEP, pH 7.5, 1 mM S3P) is 60 to 200 µM.
Usually pIC50 stands for the IC50 on a negative log10 scale, so that one unit is a factor of ten. As for `O=C(O)CNCP(=O)(O)O` [glyphosate, N-(phosphonomethyl)glycine], the pIC50 was 2.06 in test [1] (at 60 μM PEP); 1.80 in test [1] (at 1 mM PEP); 2.44 in test [2] (IC50 (glyphosate), at 60 μM PEP); less than 1.10 in test [2] (IC50 (glyphosate), at 1 mM PEP, values greater than 50 are estimates); 2.22 to 2.52 in test [2] (tolerance to glyphosate, PEP concentration not given).

(Values after patent US9873883B2, “Glyphosate resistant plants and associated methods” (Dow AgroSciences LLC, priority 2012, dated 2018).)
